Laboratory results reported in ChEMBL document CHEMBL4665837, “Soluble guanylate cyclase stimulators for the treatment of hypertension: Discovery of MK-2947” (Bioorg Med Chem Lett, 2020).

Legend:
[1] = Oral bioavailability in rat at 2 mg/kg; assay type: ADME, organism-based; settings: in vivo
[2] = Half life in rat at 1 mg/kg, iv and 2 mg/kg, po; assay type: ADME, organism-based; settings: in vivo
[3] = AUCt/dose in Sprauge-Dawley rat; assay type: ADME; settings: in vivo
[4] = Oral bioavailability in Sprauge-Dawley rat; assay type: ADME, organism-based; settings: Sprague-Dawley, in vivo
[5] = Drug level in SRH rat plasma a 1 mg/kg , po measured after 4 hrs; assay type: ADME, organism-based
[6] = Drug level in SRH rat plasma at 3 mg/kg , po measured after 4 hrs; assay type: ADME, organism-based
[7] = Drug level in SRH rat plasma at 0.3 mg/kg , po measured after 4 hrs; assay type: ADME, organism-based
[8] = Oral bioavailability in monkey at 2 mg/kg, po; assay type: ADME, organism-based, Macaca mulatta; settings: rhesus monkey, in vivo
[9] = Half life in monkey at 0.5 mg/kg, iv and 2 mg/kg, po; assay type: ADME, organism-based, Macaca mulatta; settings: rhesus monkey, in vivo
[10] = Clearance in monkey at 0.5 mg/kg, iv and 2 mg/kg, po; assay type: ADME, organism-based, Macaca mulatta; settings: rhesus monkey, in vivo
[11] = Oral bioavailability in dog at 10 mg/kg; assay type: ADME, organism-based, Canis lupus familiaris; settings: in vivo
[12] = Half life in dog at 1 mg/kg, iv and 10 mg/kg, po; assay type: ADME, organism-based, Canis lupus familiaris; settings: in vivo
[13] = Clearance in dog at 1 mg/kg, iv and 10 mg/kg, po; assay type: ADME, organism-based, Canis lupus familiaris; settings: in vivo
[14] = Half life in rat at 2 mg/kg, po; assay type: ADME, organism-based; settings: in vivo
[15] = Clearance in rat at 1 mg/kg, iv and 2 mg/kg, po; assay type: ADME, organism-based; settings: in vivo
[16] = Total Plasma clearance in Sprauge-Dawley rat; assay type: ADME; settings: Sprague-Dawley
[17] = Half life in Sprauge-Dawley rat; assay type: ADME; settings: Sprague-Dawley, in vivo

Structure (SMILES) | bioavailability [1] [%] | half-life [2] [h] | AUCt/dose [3] [µM·kg·h/mg] | bioavailability [4] [%] | clearance [16] [mL/min/kg] | half-life [17] [h] | further results
COC(=O)N(C)c1c(N)nc(-c2nc(Cc3ccccc3F)n3ccccc23)nc1N | 15 | 0.9 |  |  |  |  | 
COC(=O)N(C)c1c(N)nc(-n2nc(Cc3ccccc3F)c3ccccc32)nc1N | 32 | 0.9 |  |  |  |  | 
COC(=O)N(C)c1c(N)nc(-n2nc(Cc3c(F)ccc(F)c3F)c3cc(Cl)ccc32)nc1N |  |  | 18 | 51 | 0.9 | 3.6 | 
COC(=O)N(C)c1c(N)nc(-n2nc(Cc3ccccc3F)c3cc(F)ccc32)nc1N |  |  | 4.6 | 22 | 1.4 | 1.5 | 

Continued, in another order:

bioavailability [1] [%] | half-life [2] [h] | AUCt/dose [3] [µM·kg·h/mg] | bioavailability [4] [%] | clearance [16] [mL/min/kg] | half-life [17] [h] | Structure (SMILES) | further results
 |  | 25.2 | 37 |  |  | COC(=O)Nc1c(N)nc(-n2nc(Cc3c(F)ccc(F)c3F)c3cc(Cl)ccc32)nc1N | 
80 |  |  |  |  |  | CC1(C)C(=O)Nc2nc(-n3nc(CCC(F)(F)F)c4cc(Cl)ccc43)nc(N)c21 | concentration at 4 h [5]: 145 nM; concentration at 4 h [6]: 392 nM; concentration at 4 h [7]: 36 nM; bioavailability [8]: 63%; half-life [9]: 1.4 h; clearance [10]: 34 mL/min/kg; bioavailability [11]: 21%; half-life [12]: 1.3 h; clearance [13]: 39 mL/min/kg; half-life [14]: 2.6 h; clearance [15]: 29 mL/min/kg
4 | 0.6 |  |  |  |  | COC(=O)N(C)c1c(N)nc(-c2nc(Cc3ccccc3F)n3ncccc23)nc1N | 
 |  | 15.3 | 68 | 1.6 | 2.2 | COC(=O)N(C)c1c(N)nc(-n2nc(Cc3c(F)ccc(F)c3F)c3ccccc32)nc1N | 
